Reference: paper PMC10643566, “Insights into the mechanism of SARS-CoV-2 main protease autocatalytic maturation from model precursors” (Communications Biology, 2023)
Where “and” joins values, the source holds several entries; their conditions need not be identical. Equal entries are not always repeated.

Experiments:
[1] = system: nsp4/nsp5 cleavage site; assay type: biochemical, SARS-CoV-2
[2] = target: MPro^1–199 (catalytic domain); settings: read-out: GC373 binding (Kd), determined by ITC, ref [11],[13]; cited from earlier work
[3] = target: MPro^M (E290A and R298A mutations); settings: read-out: GC373 binding (Kd), determined by ITC, ref [11],[13]; cited from earlier work
[4] = target: MPro^WT; settings: read-out: GC373 binding (Kd), determined by ITC, ref [11],[13]; cited from earlier work

For “^(−25)MPro^1–199: precursor with 25 nsp4 residues appended to the N-terminus of catalytic domain MPro^1–199”, the “% Conversion at 15 h” value [1] was 32.2% and 32.4%, the “% Conversion at 24 h” value [1] was 42.2% and 43.2% and the “Δ[P] at 24 h” value [1] was 40.5 ± 0.4 µM and 20.7 ± 0.2 µM.

In the case of `CC(C)C[C@H](NC(=O)OCc1ccccc1)C(=O)N[C@H](C=O)C[C@@H]1CCNC1=O` [GC373], the Kd [2] is given as 32 ± 5 µM, the Kd [3] is given as 6.13 ± 0.3 µM and the Kd [4] is given as 0.15 µM.
